# Results published in patent US20210277102A1, “COMPOSITIONS AND METHODS FOR TREATING A TUMOR SUPPRESSOR DEFICIENT CANCER” (BETH ISRAEL DEACONESS MEDICAL CENTER, INC., priority 2016, published 2021).
# Entries after “also recorded” stand apart in the source; their conditions may differ.
# Legend:
# [1] = tested on: Pten^pc−/−; Zbtb7a^pc−/− prostate tumors; experiment: In vivo drug and antibody treatment of Pten^pc−/−; Zbtb7a^pc−/− mice (MRI, flow cytometry, histology, western blot, qRT-PCR); design: species or system mouse
# Method: (§1) Mice were allocated at random to experimental groups and studies were performed in an unblended manner. For treatment with the CXCR2 antagonist, SB225002 (Cayman Chemical #13336) was dissolved in DMSO (10 mg/ml) and diluted in vehicle (0.9% NaCl, 0.3% Tween 80) for in vivo administration. Mice (4 months of age) were treated daily for 10 days by intraperitoneal injection (5 mg/kg) and prostate tumor tissue (anterior lobes) was subjected to Flow Cytometry and histological analysis. For MRI analysis, mice (4 months of age) were treated daily for 21 days (Pten^pc-/-; Zbtb7a^pc-/-), for 14 days (Pten^pc-/-; Trp53^pc-/-) or for 14 days (Pten^pc-/-; Pml^pc-/-) by intraperitoneal injection (5 mg/kg). For depletion of Gr-1+/CD11b+ cells, Ly6G-depletion antibody (1A8, BioXcell) and control Rat IgG2a antibody (BioXcell) were diluted in phosphate-buffered saline (PBS) for in vivo administration. Mice (4 months of age) were treated every other day for 10 days by intraperitoneal injection (200-300 μg/mouse). InVivoMAb anti-mouse Ly6G/Ly6C (Gr-1) antibody, clone RB6-8C5 (BE0075, BioXcell), and control Rat IgG2b antibody (BE0090, BioXcell) were diluted in PBS and Pten^pc-/-; Trp53^pc-/- mice were treated every other day for 14 days by intraperitoneal injection (200 μg/mouse). For neutralization of CXCL5, anti-Mouse CXCL5 antibody (Leinco Technologies) and control Rat IgG2a antibody (BioXcell) were diluted in PBS and injected every other day for 21 days by intraperitoneal injection (20 μg/mouse). Tumor volume quantification was performed by using VivoQuant and Image J software. All mouse prostate MRI imaging analysis was performed at Small Animal Imaging Core at BIDMC and acquired on an […] Model M2 1T tabletop scanner. For western blotting, cell lysates were prepared by homogenizing tumor tissue with NP40 Buffer (Boston Bioproducts) supplemented with protease (Roche) and HALT phosphatase inhibitor cocktails (Thermo Scientific) and subsequently subjected to SDS-Gel separation (Invitrogen) and western blotting. The following antibodies were used for western blotting: […] (AC-74; Sigma), CXCL5 (R & D Systems #AF433), pIRAK4 (Cell Signaling Technology #11927S), IRAK4 (Cell Signaling Technology #4363P), IκBα (Cell Signaling Technology #4812S), Zbtb7a (hamster anti-Zbtb7a clone 13E9), PTEN (Cell Signaling Technology #9559S), p53 (Cell Signaling Technology #2524S), p21 (Santa Cruz Biotechnology sc-6246) and HSP90 (BD Biosciences BDB610419). Western blots were quantified using Image J software. For immunohistochemistry, tissues and organoids were fixed in 4% paraformaldehyde and embedded in paraffin in accordance with standard procedures. Embedding and hematoxylin and eosin staining of sections were performed by the Histology Core at BIDMC and analyzed by a pathologist. Sections were stained with anti-LY6G (BioLegend #127603), anti-CD45R (Abcam #ab64100), anti-CD3 (Abcam #ab5690), anti-beta Catenin (Abcam #32572), anti-phospho ERK (Cell Signaling Technology #4376), anti-phospho AKT Ser473 (Cell Signaling Technology #4060) and anti-Ki67 (Thermo Scientific #RM-9106) according to manufacturer's recommendations. For Flow Cytometry, spleen and lymph node single cell suspensions were prepared by mashing the tissue in 2% FBS/PBS. Tumor and control prostate tissue (from anterior lobes) single cell suspension was prepared by mincing the tumor and digestion with Collagenase Type I (Life Technologies #17018029) in 10% DMEM (GIBCO) for 1 hr at 37° C. […]
# [2] = tested on: Pten^pc−/−; Trp53^pc−/− prostate tumors; experiment: In vivo drug and antibody treatment of Pten^pc−/−; Trp53^pc−/− mice (MRI, flow cytometry, histology); design: species or system mouse
# Method: as §1, with “pathologist.” for “pathologist. Sections were stained with anti-LY6G (BioLegend #127603), anti-CD45R (Abcam #ab64100), anti-CD3 (Abcam #ab5690), anti-beta Catenin (Abcam #32572), anti-phospho ERK (Cell Signaling Technology #4376), anti-phospho AKT Ser473 (Cell Signaling Technology #4060) and anti-Ki67 (Thermo Scientific #RM-9106) according to manufacturer's recommendations. For Flow Cytometry, spleen and lymph node single cell suspensions were prepared by mashing the tissue in 2% FBS/PBS. Tumor and control prostate tissue (from anterior lobes) single cell suspension was prepared by mincing the tumor and digestion with Collagenase Type I (Life Technologies #17018029) in 10% DMEM (GIBCO) for 1 hr at 37° C.”
# [3] = Trp53^pc−/− prostate tumors after treatment
smiles,measurement,setting,value
O=C(Nc1ccc([N+](=O)[O-])cc1O)Nc1ccccc1Br [SB225002],tumor growth (tumor volume by MRI),"[1]; Zbtb7a^pc−/− mice, intraperitoneal injection, vs vehicle",significantly suppressed the tumor growth; also recorded: significant inhibition of tumor growth
same,intra-tumoral Gr-1+/CD11b+ cells (flow cytometry),[1]; Zbtb7a^pc−/− prostate tumors after treatment,decrease of Gr-1+/CD11b+ cells
same,tumor burden (histological analysis),"[1]; Zbtb7a^pc−/− tumors, anterior prostate lobes",reduced tumor burden; also recorded: significantly diminished tumor involvement
same,IκBα protein level (western blot),"[1]; Zbtb7a^pc−/− tumors, normalized with β-actin, vs vehicle",increased IκBα protein levels
same,expression of CXCL5 in the prostate tumors,"[1]; Zbtb7a^pc−/− tumors, vs vehicle",elevated expression of CXCL5
same,tumor growth (tumor volume by MRI),"[2]; Trp53^pc−/− mice, intraperitoneal injection, vs vehicle or control IgG",significantly suppressed the tumor growth; also recorded: significant inhibition of tumor growth
same,Treg cells (CD4+/FoxP3+) in tumor (flow cytometry),[2]; [3],less Foxp3+ cells; also recorded: less Treg cells
same,intra-tumoral Gr-1+/CD11b+ cells (flow cytometry),[2]; [3],decrease of Gr-1+/CD11b+ cells
same,tumor burden (histological analysis),"[2]; Trp53^pc−/− tumors, anterior prostate lobes",reduced tumor burden; also recorded: significantly diminished tumor involvement
